What follows are compounds tested against human SGLT2 (Homo sapiens (Human), UniProt P31639) (assay: hSGLT2 inhibitory activity, sodium-dependent 14C-AMG glucose transport assay in CHO cells expressing hSGLT2). Settings: 14C-AMG uptake, CHO cells expressing hSGLT2, 37° C. for 2 h.
Chain of human SGLT2 (P31639 whole entry): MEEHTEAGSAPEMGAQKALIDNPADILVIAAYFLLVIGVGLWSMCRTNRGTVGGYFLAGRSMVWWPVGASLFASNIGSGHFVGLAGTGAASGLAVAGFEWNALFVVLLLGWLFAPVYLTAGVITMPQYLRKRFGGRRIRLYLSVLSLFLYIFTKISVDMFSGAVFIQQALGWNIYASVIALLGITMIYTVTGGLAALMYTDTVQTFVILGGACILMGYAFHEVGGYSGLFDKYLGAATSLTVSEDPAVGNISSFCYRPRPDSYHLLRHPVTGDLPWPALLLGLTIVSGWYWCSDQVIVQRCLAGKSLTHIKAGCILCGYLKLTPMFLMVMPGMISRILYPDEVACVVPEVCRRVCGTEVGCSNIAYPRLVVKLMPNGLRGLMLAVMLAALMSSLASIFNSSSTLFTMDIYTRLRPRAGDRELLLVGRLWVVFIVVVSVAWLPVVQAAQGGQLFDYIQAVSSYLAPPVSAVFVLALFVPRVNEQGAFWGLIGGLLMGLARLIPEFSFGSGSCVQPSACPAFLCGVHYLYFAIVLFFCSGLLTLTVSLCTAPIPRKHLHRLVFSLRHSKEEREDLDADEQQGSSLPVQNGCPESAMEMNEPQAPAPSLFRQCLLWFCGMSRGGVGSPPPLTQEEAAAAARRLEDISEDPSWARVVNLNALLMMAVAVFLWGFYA
Format: cell-based
Source text: Human SGLT2 (hSGLT2) gene was amplified by PCR from cDNA-Human Adult Normal Tissue Kidney (Invitrogen, Carlsbad, Calif.). The hSGLT2 sequence was cloned into pcDNA3.1(+) for mammalian expression and were stably transfected into Chinese hamster ovary (CHO) cells. SGLT2-expressing clones were selected based on resistance to G418 antibiotic (Geneticin®, Invitrogen, Carlsbad, Calif.) and activity in the ^14C-α-methyl-D-glucopyranoside (^14C-AMG) uptake assay.
For sodium-dependent glucose transport assay, cells expressing hSGLT2 were seeded into a 96-well culture plate at a density of 5×10^4 cells/well in RPMI medium 1640 containing 10% fetal bovine serum. The cells were used 1 day after plating. They were incubated in pretreatment buffer (10 mM HEPES, 5 mM Tris, 140 mM choline chloride, 2 mM KCl, 1 mM CaCl2, and 1 mM MgCl2, pH 7.4) at 37° C. for 10 min. They were then incubated in uptake buffer (10 mM HEPES, 5 mM Tris, 140 mM NaCl, 2 mM KCl, 1 mM CaCl2, 1 mM MgCl2, and 1 mM ^14C-nonlabeled AMG pH 7.4) containing ^14C-labeled (8 uM) and inhibitor or dimethyl sulfoxide (DMSO) vehicle at 37° C. for 2 h. Cells were washed twice with washing buffer (pretreatment buffer containing 10 mM AMG at room temperature) and then the radioactivity was measured using a liquid scintillation counter.
Compound `OC[C@H]1O[C@@H](c2ccc(Cl)c(Cc3ccc(OC4CCCCC4)nn3)c2)[C@H](O)[C@@H](O)[C@@H]1O` [Example 59, (2S,3R,4R,5S,6R)-2-(4-Chloro-3-((6-(cyclohexyloxy)pyridazin-3-yl)methyl)phenyl)-6-(hydroxymethyl)-tetrahydro-2H-pyran-3,4,5-triol] has an IC50 of 0.111 µM. `OC[C@H]1O[C@@H](c2ccc(Cl)c(Cc3ccc(-c4ccoc4)nn3)c2)[C@H](O)[C@@H](O)[C@@H]1O` [Example 63, (2S,3R,4R,5S,6R)-2-(4-Chloro-3-((6-(furan-3-yl)pyridazin-3-yl)methyl)phenyl)-6-(hydroxymethyl)-tetrahydro-2H-pyran-3,4,5-triol] showed an IC50 of 0.0613 µM. In the case of `OC[C@H]1O[C@@H](c2ccc(Cl)c(Cc3ccc(-c4ccc5c(c4)OCO5)nn3)c2)[C@H](O)[C@@H](O)[C@@H]1O` [Example 67, (2S,3R,4R,5S,6R)-2-(3-((6-(Benzo[d][1,3]dioxol-5-yl)pyridazin-3-yl)methyl)-4-chlorophenyl)-6-(hydroxymethyl)-tetrahydro-2H-pyran-3,4,5-triol], the IC50 is reported as 0.0827 µM. Compound `Cc1ccc(Cc2cc([C@@H]3O[C@H](CO)[C@@H](O)[C@H](O)[C@H]3O)ccc2Cl)nn1` [Example 73, (2S,3R,4R,5S,6R)-2-(4-Chloro-3-((6-methylpyridazin-3-yl)methyl)phenyl)-6-(hydroxymethyl)-tetrahydro-2H-pyran-3,4,5-triol] has an IC50 of 0.293 µM. `CCCc1ccc(Cc2cc([C@@H]3O[C@H](CO)[C@@H](O)[C@H](O)[C@H]3O)ccc2Cl)nn1` [Example 74, (2S,3R,4R,5S,6R)-2-(4-Chloro-3-((6-propylpyridazin-3-yl)methyl)phenyl)-6-(hydroxymethyl)-tetrahydro-2H-pyran-3,4,5-triol] showed an IC50 of 0.237 µM. For `CC(C)Cc1ccc(Cc2cc([C@@H]3O[C@H](CO)[C@@H](O)[C@H](O)[C@H]3O)ccc2Cl)nn1` [Example 77, (2S,3R,4R,5S,6R)-2-(4-Chloro-3-((6-isobutylpyridazin-3-yl)methyl)phenyl)-6-(hydroxymethyl)-tetrahydro-2H-pyran-3,4,5-triol], the IC50 was 0.811 µM. `CCSc1ccc(Cc2cc([C@@H]3O[C@H](CO)[C@@H](O)[C@H](O)[C@H]3O)ccc2Cl)nn1` [Example 80, (2S,3R,4R,5S,6R)-2-(4-Chloro-3-((6-(ethylthio)pyridazin-3-yl)methyl)phenyl)-6-(hydroxymethyl)-tetrahydro-2H-pyran-3,4,5-triol] was tested, and the IC50 was 0.0713 µM. For `CSc1nnc(Cc2cc([C@@H]3O[C@H](CO)[C@@H](O)[C@H](O)[C@H]3O)ccc2Cl)cc1C` [Example 82, (2S,3R,4R,5S,6R)-2-(4-Chloro-3-((5-methyl-6-(methylthio)pyridazin-3-yl)methyl)phenyl)-6-(hydroxymethyl)tetrahydro-2H-pyran-3,4,5-triol], the IC50 was 1.52 µM. `Cc1cc(Cc2cc([C@@H]3O[C@H](CO)[C@@H](O)[C@H](O)[C@H]3O)ccc2Cl)n[nH]c1=O` [Example 83, 6-(2-Chloro-5-((2S,3R,4R,5S,6R)-3,4,5-trihydroxy-6-(hydroxymethyl)-tetrahydro-2H-pyran-2-yl)benzyl)-4-methylpyridazin-3(2H)-one] was tested, and the IC50 was 0.618 µM. For `OC[C@H]1O[C@@H](c2ccc(Cl)c(Cc3ccc(N4CCOCC4)nn3)c2)[C@H](O)[C@@H](O)[C@@H]1O` [Example 84, (2S,3R,4R,5S,6R)-2-(4-Chloro-3-((6-morpholinopyridazin-3-yl)methyl)phenyl)-6-(hydroxymethyl)-tetrahydro-2H-pyran-3,4,5-triol], the IC50 was 0.7 µM. For `Cc1ccc2nc(Cc3cc([C@@H]4O[C@H](CO)[C@@H](O)[C@H](O)[C@H]4O)ccc3Cl)nnc2c1` [Example 87, (2S,3R,4R,5S,6R)-2-(4-Chloro-3-((7-methylbenzo[e][1,2,4]triazin-3-yl)methyl)phenyl)-6-(hydroxymethyl)tetrahydro-2H-pyran-3,4,5-triol], the IC50 was 0.532 µM. Work on `OC[C@H]1O[C@@H](c2ccc(Cl)c(Cc3nnc4ccccc4n3)c2)[C@H](O)[C@@H](O)[C@@H]1O` [Example 88, (2S,3R,4R,5S,6R)-2-(3-(Benzo[e][1,2,4]triazin-3-ylmethyl)-4-chlorophenyl)-6-(hydroxymethyl)tetrahydro-2H-pyran-3,4,5-triol] yielded an IC50 of 0.491 µM. `OC[C@H]1O[C@@H](c2ccc(Cl)c(Cc3nccnn3)c2)[C@H](O)[C@@H](O)[C@@H]1O` [Example 89, (2S,3R,4R,5S,6R)-2-(3-((1,2,4-triazin-3-yl)methyl)-4-chlorophenyl)-6-(hydroxymethyl)tetrahydro-2H-pyran-3,4,5-triol] showed an IC50 of 0.261 µM. In the case of `OC[C@H]1O[C@@H](c2ccc(Cl)c(Cc3nncc(-c4ccccc4)n3)c2)[C@H](O)[C@@H](O)[C@@H]1O` [Example 90, (2S,3R,4R,5S,6R)-2-(4-Chloro-3-((5-phenyl-1,2,4-triazin-3-yl)methyl)phenyl)-6-(hydroxymethyl)tetrahydro-2H-pyran-3,4,5-triol], the IC50 is reported as 0.402 µM. With `COc1cnc(Cc2cc([C@@H]3O[C@H](CO)[C@@H](O)[C@H](O)[C@H]3O)ccc2Cl)nn1` [Example 91, (2S,3R,4R,5S,6R)-2-(4-Chloro-3-((6-methoxy-1,2,4-triazin-3-yl)methyl)phenyl)-6-(hydroxymethyl)tetrahydro-2H-pyran-3,4,5-triol] the IC50 was 0.0249 µM. With `OC[C@H]1O[C@@H](c2cc(Cc3nnc(-c4ccco4)s3)cc3ccccc23)[C@H](O)[C@@H](O)[C@@H]1O` [Example 92, (2S,3R,4R,5S,6R)-2-(3-((5-(Furan-2-yl)-1,3,4-thiadiazol-2-yl)methyl)naphthalene-1-yl)-6-(hydroxymethyl)-tetrahydro-2H-pyran-3,4,5-triol] the IC50 was 0.0889 µM. `COc1c(Cc2nnc(-c3ccco3)s2)cc([C@@H]2O[C@H](CO)[C@@H](O)[C@H](O)[C@H]2O)c2ccccc12` [Example 93, (2S,3R,4R,5S,6R)-2-(3-((5-(Furan-2-yl)-1,3,4-thiadiazol-2-yl)methyl)-4-methoxynaphthalen-1-yl)-6-(hydroxymethyl)-tetrahydro-2H-pyran-3,4,5-triol] was tested, and the IC50 was 0.0107 µM. For `OC[C@H]1O[C@@H](c2cc(Cc3nnc(-c4ccco4)s3)c(O)c3ccccc23)[C@H](O)[C@@H](O)[C@@H]1O` [Example 94, (2S,3R,4R,5S,6R)-2-(3-((5-(Furan-2-yl)-1,3,4-thiadiazol-2-yl)methyl)-4-hydroxynaphthalen-1-yl)-6-(hydroxymethyl)-tetrahydro-2H-pyran-3,4,5-triol], the IC50 was 0.0248 µM. For `OC[C@H]1O[C@@H](c2cc(Cc3nnc(-c4ccco4)s3)c3ccccc3c2)[C@H](O)[C@@H](O)[C@@H]1O` [Example 95, (2S,3R,4R,5S,6R)-2-(4-((5-(Furan-2-yl)-1,3,4-thiadiazol-2-yl)methyl)naphthalen-2-yl)-6-(hydroxymethyl)-tetrahydro-2H-pyran-3,4,5-triol], the IC50 was 0.323 µM. `OC[C@H]1O[C@@H](c2cc(Cc3nnc(-c4ccco4)s3)c(Cl)cc2Cl)[C@H](O)[C@@H](O)[C@@H]1O` [Example 96, (2S,3R,4R,5S,6R)-2-(2,4-Dichloro-5-((5-(furan-2-yl)-1,3,4-thiadiazol-2-yl)methyl)phenyl)-6-(hydroxymethyl)-tetrahydro-2H-pyran-3,4,5-triol] gave an IC50 of 0.0176 µM. Compound `COc1cc(Cl)c(Cc2nnc(-c3ccco3)s2)cc1[C@@H]1O[C@H](CO)[C@@H](O)[C@H](O)[C@H]1O` [Example 97, (2S,3R,4R,5S,6R)-2-(4-Chloro-5-((5-(furan-2-yl)-1,3,4-thiadiazol-2-yl)methyl)-2-methoxyphenyl)-6-(hydroxymethyl)-tetrahydro-2H-pyran-3,4,5-triol] has an IC50 of 0.00555 µM.
